Experimental data taken from patent publication US10633348B2, “Methods to treat lymphoplasmacytic lymphoma” (Dana-Farber Cancer Institute, Inc., priority 2013, dated 2020).

Key:
Format in all cases: cell-based
AMPKa1, AMPKa2 = experiment: KiNativ kinase profiling in A375 cells; settings: Lys2, SEQ ID NO 4, 1.0 μM
CAMK1D = tested on: CAMK1D
CDK4 = tested on: CDK4
CDK5 = tested on: CDK5
CDK7 = tested on: CDK7
CHK1 = tested on: CHK1
CHK2 = tested on: CHK2
DGKA = tested on: DGKA
DGKH = tested on: DGKH
ERK2 = tested on: ERK2
IRAK4 = tested on: IRAK4
ITPK1 = tested on: ITPK1
JAK1 = tested on: JAK1
JNK1, JNK2, JNK3 = experiment: KiNativ kinase profiling in A375 cells; settings: Lys2, SEQ ID NO 67, 1.0 μM
KHS1 = tested on: KHS1
LCK = tested on: LCK
LOK = tested on: LOK
LRRK2 = tested on: LRRK2
MAP2K1, MAP2K2 = experiment: KiNativ kinase profiling in A375 cells; settings: Lys2, SEQ ID NO 79, 1.0 μM
MAP3K4 = tested on: MAP3K4
MARK2, MARK3 = experiment: KiNativ kinase profiling in A375 cells; settings: Lys2, SEQ ID NO 92, 1.0 μM
MARK3, MARK4 = experiment: KiNativ kinase profiling in A375 cells; settings: Lys1, SEQ ID NO 94, 1.0 μM
MAST3 = tested on: MAST3
MLK4 = tested on: MLK4
MST4 = tested on: MST4
MST4, YSK1 = experiment: KiNativ kinase profiling in A375 cells; settings: Lys2, SEQ ID NO 114, 1.0 μM
NEK6, NEK7 = experiment: KiNativ kinase profiling in A375 cells; settings: Lys2, SEQ ID NO 122, 1.0 μM
OSR1 = tested on: OSR1
PAN3 = tested on: PAN3
PCTAIRE2, PCTAIRE3 = experiment: KiNativ kinase profiling in A375 cells; settings: Lys1, SEQ ID NO 135, 1.0 μM
PDK1 = tested on: PDK1
PIK3C2B = tested on: PIK3C2B
PIK3C3 = tested on: PIK3C3
PKN1 = tested on: PKN1
PKR = tested on: PKR
STLK5 = tested on: STLK5
TAK1 = tested on: TAK1
TAO1, TAO3 = experiment: KiNativ kinase profiling in A375 cells; settings: Lys2, SEQ ID NO 182, 1.0 μM
TEC = tested on: TEC
TYK2 domain2 = tested on: TYK2 domain2
WEE1 = tested on: WEE1
Wnk1, Wnk2, Wnk3 = experiment: KiNativ kinase profiling in A375 cells; settings: Lys2, SEQ ID NO 194, 1.0 μM
BTK-pY223 = experiment: PhosFlow; settings: BCWM.1, Hck-wt and Hck-mu BCWM.1 cells; 0.5 μM and 0.1 μM
Description: PhosFlow was performed to detect levels of phosphorylation for BTK-pY223 (BD Biosciences) and Hck-pY410 (Abcam) in BCWM.1 cells, in BCWM cells that stably overexpress HCK (BCWM.1_HCK-wt) and in BCWM.1 cells that stably overexpress the T338M mutant of HCK (BCWM.1_HCK-mu). Cells were fixed with BD Phosflow Fix Buffer I (BD Biosciences) at 37° C. for 10 min, then washed twice with BD Phosflow Perm/Wash Buffer I (BD Biosciences). Cells were suspended in BD Phosflow Perm/Wash Buffer I at 10 million/ml and antibodies aliquoted to flow tubes with 100 μl cells. Cells were incubated at room temperature for 30 min in the dark. Cells were washed twice with BD Phosflow Perm/Wash Buffer I before performing flow analysis using a BD™ FACSCanto II flow cytometer.

CCN1CCN(Cc2ccc(NC(=O)c3ccc(C)c(Oc4cc(N)ncn4)c3)cc2C(F)(F)F)CC1 [(A-4), 3-((6-aminopyrimidin-4-yl)oxy)-N-(4-((4-ethylpiperazin-1-yl)methyl)-3-(trifluoromethyl)phenyl)-4-methylbenzamide]
inhibition of kinase labeling (AMPKa1, AMPKa2): 16.3% | inhibition of kinase labeling (CAMK1D): −6.0% | inhibition of kinase labeling (CDK4): 17.4% | inhibition of kinase labeling (CDK5): −27.3% | inhibition of kinase labeling (CDK7): 3.9% | inhibition of kinase labeling (CHK1): −5.0% | inhibition of kinase labeling (CHK2): −7.8% | inhibition of kinase labeling (DGKA): −4.8% | inhibition of kinase labeling (DGKH): −6.3% | inhibition of kinase labeling (ERK2): −3.8% | inhibition of kinase labeling (IRAK4): 1.9% | inhibition of kinase labeling (ITPK1): 1.2% | inhibition of kinase labeling (JAK1): 4.3% | inhibition of kinase labeling (JNK1, JNK2, JNK3): 77.2% | inhibition of kinase labeling (KHS1): 15.8% | inhibition of kinase labeling (LCK): 92.3% | inhibition of kinase labeling (LOK): 19.9% | inhibition of kinase labeling (LRRK2): −15.9% | inhibition of kinase labeling (MAP2K1, MAP2K2): −16.3% | inhibition of kinase labeling (MAP3K4): 19.2% | inhibition of kinase labeling (MARK2, MARK3): 4.6% | inhibition of kinase labeling (MARK3, MARK4): −16.2% | inhibition of kinase labeling (MAST3): −8.1% | inhibition of kinase labeling (MLK4): −1.7% | inhibition of kinase labeling (MST4): 6.2% | inhibition of kinase labeling (MST4, YSK1): 4.6% | inhibition of kinase labeling (NEK6, NEK7): −12.5% | inhibition of kinase labeling (OSR1): −11.1% | inhibition of kinase labeling (PAN3): 12.1% | inhibition of kinase labeling (PCTAIRE2, PCTAIRE3): 11.7% | inhibition of kinase labeling (PDK1): 18.8% | inhibition of kinase labeling (PIK3C2B): 24.0% | inhibition of kinase labeling (PIK3C3): −5.1% | inhibition of kinase labeling (PKN1): −32.1% | inhibition of kinase labeling (PKR): −28.4% | inhibition of kinase labeling (STLK5): 5.0% | inhibition of kinase labeling (TAK1): 32.0% | inhibition of kinase labeling (TAO1, TAO3): 76.5% | inhibition of kinase labeling (TEC): −12.8% | inhibition of kinase labeling (TYK2 domain2): −18.1% | inhibition of kinase labeling (WEE1): 23.2% | inhibition of kinase labeling (Wnk1, Wnk2, Wnk3): 0.2%

CCN1CCN(Cc2ccc(NC(=O)c3ccc(C)c(Oc4ccnc(Nc5cnn(C)c5)n4)c3)cc2C(F)(F)F)CC1 [(A-14), N-(4-((4-ethylpiperazin-1-yl)methyl)-3-(trifluoromethyl)phenyl)-4-methyl-3-((2-((1-methyl-1H-pyrazol-4-yl)amino)pyrimidin-4-yl)oxy)benzamide]
BTK phosphorylation (BTK-pY223): inhibit
